Assays:
[1] = system: A.D.P.-induced blood-platelet aggregation; assay: A.D.P.-induced blood-platelet aggregation after oral treatment of rats; format: in vivo, Wistar rats; settings: Rattus norvegicus, 100 mg/kg oral, 3 hrs after treatment, 10 μM A.D.P. solution, read-out: Percent inhibition of blood-platelet aggregation, A.D.P.
Procedure: (§1) Blood is taken from the jugular vein of Wistar rats. From this citrated blood, and after centrifugation, a plasma containing 600,000±20,000 blood-platelets per mm 3 is reconstituted, which plasma is used in all aggregation determinations.
(§2) 0.4 ml plasma is placed in a siliconized tube provided with a magnet bar which is also siliconized. The tube is introduced into an aggregometer connected to an apparatus which records the optical density variations. When light transmission reaches a stable value, 0.5 ml of a solution containing 10 μM A.D.P. (adenosine diphosphate) is introduced into the tube.
Blood-platelet aggregation then induces an increase of light transmission, followed by a decrease subsequent to the disaggregation stage.
The maximal optical density variation thus determined characterizes the extent of the aggregation.
(§3) Different groups of 20 rats each are used. Each group is orally administered a test derivative, at a dosage of 100 mg/kg. The results obtained during both tests are reported in following Table I which indicates the percent inhibition of blood-platelet aggregation obtained with respect to the reference group, 3 hrs after treatment.

[2] = system: carrageenin-induced edema; assay: Localized carrageenin-induced edema method; format: in vivo; settings: rats, 100 mg/kg oral one hour before, with, and 1 and 2.5 hours after carrageenin
Procedure: 0.1 ml of a 1% carrageenin solution is injected at time O in the metatarsal flexor muscles of the right hind limb of rats.
The animals of the treated group are additionally orally administered 100 mg/kg of the test derivative, respectively one hour prior to, and then simultaneously with the phlogogenic agent, and then one hour and 2.5 hours thereafter. The determinations effected with a ROCH micrometer at times 0, 1 hr, 2 hrs, 3 hrs and 5 hrs after carrageenin administration make it possible to determine the percent anti-inflammatory activity, as a function of time.

Red blood cells [3] = assay: Anti-sludge in vitro, "curative" procedure (protamine sulfate agglomeration of red blood cells); format: cell-based, rats; settings: 25 μg
Procedure: (§4) Red blood cells of rats are washed three times and diluted to 1/250 concentration in physiological saline. In each of 5 tubes are placed 0.6 ml of this suspension and 0.2 ml physiological saline. Into each tube is then added, respectively, an amount of 0, 25, 50, 100 and 200 μg of the test derivative contained in 0.2 ml of solution. After incubation for one hour at 37° C., 0.2 ml of a solution containing 125 μg/ml protamine sulfate is added thereto, and the resulting material is further incubated for 0.5 hour at 37° C. The red blood cells of each tube are then examined with a Mallasez cell, and the percent free red blood cells (RBC) and the percent agglomerates formed by 2, 3, 4, 5 . . . RBC are noted.
The test was repeated according to a "curative" procedure. The red blood cells were first contacted with the protamine sulfate and, after incubation for 0.5 hour, 0.2 ml containing 25 μg of the test derivative were added thereto, after which the material was further incubated for one hour at 37° C.

[4] = system: collagen-induced blood-platelet aggregation; assay: Collagen-induced blood-platelet aggregation after oral treatment of rats; format: in vivo, Wistar rats; settings: Rattus norvegicus, 100 mg/kg oral, 3 hrs after treatment, collagen (bovine tendon extract), read-out: Percent inhibition of blood-platelet aggregation, Collagen
Procedure: as §1, §2
The A.D.P. solution is substituted with a collagen solution (bovine tendon extract).
as §3

mice = assay: Antalgic action, acetic acid method according to Koster, Anderson & de Beer; format: in vivo; settings: 100 mg/kg oral, 30 minutes prior to i.p. acetic acid
Source text: (b) Acetic acid method, according to Koster, Anderson & de Beer (Fed. Proced., 18, 1959, 412, 1, 626)
Intraperitoneal injection of a dilute acetic acid solution induces, in mice, characteristic writhing movements which are repeated due to the effect of pain.

Red blood cells [5] = assay: Anti-sludge in vitro, "preventive" treatment (protamine sulfate agglomeration of red blood cells); format: cell-based, rats; settings: for percent agglomerates formed by 5 RBC: controls 6 or 8; for percent agglomerates formed by 4 RBC: controls 9 or 8; for percent agglomerates formed by 3 RBC: controls 13 or 14; for percent agglomerates formed by 2 RBC: controls 17 or 16; for percent free red blood cells (size 1): controls 32 (n°3, 4, 6) or 30 (n°11, 12, 17)
Procedure: as §4

mouse = assay: Antalgic action, mechanical stimulation method according to Haffner; format: in vivo; settings: 100 mg/kg oral
Procedure: (a) Mechanical stimulation method according to Haffner (Deutsch. Wish., 1959, 55, 731-733). This method comprises placing a pressure forceps at the base of the tail of a mouse and recording the number of bites self-inflicted by the animal in its endeavour to remove the forceps. The decrease of the number of bites prior and subsequent to oral administration of the test compound at a dosage of 100 mg/kg provides a measure of the antalgic activity of the derivatives of this invention.

[6] = system: ovalbumin-induced systemic edema; assay: Ovalbumin-induced systemic edema method; format: in vivo; settings: rats, 100 mg/kg oral one hour before and with ovalbumin
Procedure: Rats are administered a simultaneous intraperitoneal injection of 1 ml ovalbumin and 0.5 ml of a 1% aqueous Evans Blue solution. The animals of the treated group are additionally orally administered 100 mg/kg of the test derivative, one hour prior to ovalbumin administration and then simultaneously with said ovalbumin administration. The intensity of the phenomenon thus induced is rated according to a scale from 1 to 5, according to the progress of the inflammatory syndrome. The determinations are effected after 2 hours and after 3 hours. Thus are determined the mean intensity of the edema and the percent decrease of the edema reaction.

With `CC(=O)N1CCc2ccsc2C1=O` [Derivative n°11, 6-Acetyl-7-oxo-4,5,6,7-tetrahydro-thieno[2,3-c]-pyridine] the inhibition at 100 mg/kg [1] was 63%, the “Percent anti-inflammatory activity after 1 hour” value ([2]; after 1 hour) was 41% and the “Percent anti-inflammatory activity after 2 hours” value ([2]; after 2 hours) was 50%. For the same molecule, the “Percent anti-inflammatory activity After 3 hours” value ([2]; after 3 hours) was 58%, the “percent aggregates, size of agglomerates 5” value (Red blood cells [3]; reference tests 8 or 9) was 1% and the “percent aggregates, size of agglomerates 4” value (Red blood cells [3]; reference tests 11) was 2%. For the same molecule, the “percent aggregates, size of agglomerates 3” value (Red blood cells [3]; reference tests 15 or 16) was 4%, the “percent aggregates, size of agglomerates 2” value (Red blood cells [3]; reference tests 19) was 15% and the “percent aggregates, size of agglomerates 1” value (Red blood cells [3]; reference tests 33 (n°3, 4, 6) or 30 (n°11, 12, 17)) was 78%. For the same molecule, the inhibition at 100 mg/kg [4] was 92.8%, the percent antalgia (mice) was 71% and the “percent agglomerates formed by 5 RBC” value (Red blood cells [5]; 25 μg per tube) was 2%. For the same molecule, the “percent agglomerates formed by 4 RBC” value (Red blood cells [5]; 25 μg per tube) was 2%, the “percent agglomerates formed by 3 RBC” value (Red blood cells [5]; 25 μg per tube) was 14% and the “percent agglomerates formed by 2 RBC” value (Red blood cells [5]; 25 μg per tube) was 22%. The “percent free red blood cells (size 1)” value (Red blood cells [5]; 25 μg per tube) was 60%, the “percent agglomerates formed by 5 RBC” value (Red blood cells [5]; 50 μg per tube) was 1% and the “percent agglomerates formed by 4 RBC” value (Red blood cells [5]; 50 μg per tube) was 2%. For the same molecule, the “percent agglomerates formed by 3 RBC” value (Red blood cells [5]; 50 μg per tube) was 10%, the “percent agglomerates formed by 2 RBC” value (Red blood cells [5]; 50 μg per tube) was 22% and the “percent free red blood cells (size 1)” value (Red blood cells [5]; 50 μg per tube) was 65%. For the same molecule, the “percent agglomerates formed by 4 RBC” value (Red blood cells [5]; 100 μg per tube) was 1%, the “percent agglomerates formed by 3 RBC” value (Red blood cells [5]; 100 μg per tube) was 5% and the “percent agglomerates formed by 2 RBC” value (Red blood cells [5]; 100 μg per tube) was 13%. The “percent free red blood cells (size 1)” value (Red blood cells [5]; 100 μg per tube) was 81%, the “percent agglomerates formed by 4 RBC” value (Red blood cells [5]; 200 μg per tube) was 1% and the “percent agglomerates formed by 3 RBC” value (Red blood cells [5]; 200 μg per tube) was 2%. The “percent agglomerates formed by 2 RBC” value (Red blood cells [5]; 200 μg per tube) was 14%, the “percent free red blood cells (size 1)” value (Red blood cells [5]; 200 μg per tube) was 83% and the “mean percent antalgia after 30 min.” value (mouse; after 30 min.) was 65%. For the same molecule, the “mean percent antalgia after 1 hr” value (mouse; after 1 hr) was 61%, the “mean percent antalgia after 2 hrs” value (mouse; after 2 hrs) was 57% and the “mean percent antalgia after 3 hrs” value (mouse; after 3 hrs) was 50%. For the same molecule, the “Percent decrease of the edema reaction After 2 hours” value ([6]; after 2 hours) was 45% and the “Percent decrease of the edema reaction After 3 hours” value ([6]; after 3 hours) was 55%.
